The subject of assay [1] is mice with AMLN-diet-induced NASH. Kind of assay: murine diet-induced NASH model (AMLN diet), eight-week treatment. The format is in vivo, C57BL/6J mice. An excerpt: Test compounds were investigated in a mouse model of NASH (murine diet-induced NASH model) as described in Kristiansen et al (World Journal of Hepatology 2016, vol. 8, pp. 673-684). C57BL/6J mice were given ad libitum access to a diet (D09100301, Research Diet, United States) high in fat (40%, of these 18% trans-fat), carbohydrates (40%, of these 20% fructose) and cholesterol (2%) that has previously been described as AMLN diet ([…] et al., Am J Physiol Gastrointest Liver Physiol 2013, vol. 305, pp. G483-G495). A control group was kept on regular rodent chow (Altromin 1324, Brogaarden, Denmark). After 26 weeks on the diet, a liver biopsy was performed for histological assessment of NASH and fibrosis at baseline. For this purpose, about 100 mg liver tissue were collected from the left lateral lobe, fixed overnight in 4% paraformaldehyde, paraffin-embedded and sectioned (3 μm thickness). For histological assessment, sections were stained with hematoxylin, eosin or Sirius Red and followed by analysis with Visiomorph software (Visiopharm, Denmark). Histological scoring was performed by a pathologist blinded to the study. NAFLD activity score and fibrosis score were determined according to the clinical criteria outlined by Kleiner et al (Hepatology 2005, […], pp. 1313-1321). Animals were randomized into different treatment groups according to body weight and extent of fibrosis. Treatment period was eight weeks during which animals remained on the AMLN diet. Compounds were given by once-daily or twice-daily subcutaneous injection. Vehicle-treated animals on AMLN diet and non-treated animals on regular rodent chow were included as controls. Group sizes were between 8 and 14 animals. After treatment, terminal liver samples were collected and analysed as for the pre-biopsy. Dual-agonistic GLP1R/GCGR agonistic peptides were investigated in a murine model of NASH as described in the methods section. Treatment duration was eight weeks over which animals remained on the NASH-inducing AMLN diet. The GLP1R-specific agonist liraglutide (SEQ ID NO.: 4) was included as a reference compound. In the diet-induced murine NASH model, compounds were administered at the following doses (all via subcutaneous injections): SEQ ID NO.: 2 10 μg/kg b.i.d., SEQ ID NO.:3 30 μg/kg q.d. in comparison to liraglutide (SEQ ID NO.: 4) at 200 μg/kg q.d., SEQ ID NO.: 1 10 μg/kg b.i.d. or 30 μg/kg b.i.d. in comparison to liraglutide (SEQ ID NO.: 4) at 100 μg/kg b.i.d.

The target in a further assay is human GLP-1 receptor (Homo sapiens, UniProt P43220). Kind of assay: binding to human GLP-1 receptor.
Chain of human GLP-1 receptor (P43220 24-463): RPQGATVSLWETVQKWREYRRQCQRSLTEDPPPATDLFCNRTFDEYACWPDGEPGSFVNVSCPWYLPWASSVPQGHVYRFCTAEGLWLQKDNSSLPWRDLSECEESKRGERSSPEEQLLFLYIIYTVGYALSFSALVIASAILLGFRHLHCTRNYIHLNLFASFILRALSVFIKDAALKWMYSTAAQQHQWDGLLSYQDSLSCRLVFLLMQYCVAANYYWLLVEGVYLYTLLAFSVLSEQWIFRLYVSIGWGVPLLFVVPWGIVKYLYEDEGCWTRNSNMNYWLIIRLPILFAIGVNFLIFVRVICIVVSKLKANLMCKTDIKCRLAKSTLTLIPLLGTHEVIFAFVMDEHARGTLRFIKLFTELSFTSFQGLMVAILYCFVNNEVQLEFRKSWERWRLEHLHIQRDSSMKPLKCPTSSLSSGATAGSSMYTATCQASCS
Another assay addresses human glucagon receptor (Homo sapiens, UniProt P47871). The assay can be described thus: binding to human glucagon receptor.
Setting [2] is: 10 μg/kg b.i.d. s.c., eight weeks, vehicle increased by 0.2 points.
Where [3] appears, read: 30 μg/kg twice daily s.c., eight weeks, AMLN diet mice (FIG. 3A study).
[4] abbreviates: 10 μg/kg b.i.d. s.c., eight weeks, AMLN diet mice (FIG. 1A study).

Starred links: 1 amine or outer side, 2 acyl side, 3 side chain; linkers in the order of their positions; H or OH if unused. Non-standard residues stand in square brackets, D forms with d. Groups on a side chain read outwards from the residue. No end group written: not given here. Stea = stearoyl, (S)-4-carboxy-4-octadecanoylamino-butyryl on Lys via γGlu; γGlu = O=C(O)[C@H](CCC(=O)[*:2])N[*:1]

Chain of human glucagon receptor (P47871 26-477): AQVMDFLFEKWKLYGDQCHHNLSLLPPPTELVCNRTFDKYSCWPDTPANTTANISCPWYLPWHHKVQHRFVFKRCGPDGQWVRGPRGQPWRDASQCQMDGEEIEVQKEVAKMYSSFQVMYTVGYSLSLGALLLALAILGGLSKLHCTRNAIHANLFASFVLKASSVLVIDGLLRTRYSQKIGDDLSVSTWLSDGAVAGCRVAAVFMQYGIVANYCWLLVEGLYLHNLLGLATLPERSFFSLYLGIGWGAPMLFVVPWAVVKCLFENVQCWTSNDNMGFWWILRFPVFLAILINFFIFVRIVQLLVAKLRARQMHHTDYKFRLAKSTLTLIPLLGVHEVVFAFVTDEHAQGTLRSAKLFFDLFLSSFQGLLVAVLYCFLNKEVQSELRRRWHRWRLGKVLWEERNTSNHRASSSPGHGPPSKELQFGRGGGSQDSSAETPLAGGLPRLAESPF

On to “H-dS-Q-G-T-F-T-S-D-L-S-K-Q-K(γE-Stea)-DEQLAKDFIEWLKAGGPSSGAPPPS-NH2 (H[dS]QGTFTSDLSKQK([γGlu-Stea])DEQLAKDFIEWLKAGGPSSGAPPPS-NH2) [SEQ ID NO.: 3, exendin-4 derivative of formula A, dual GLP-1/glucagon receptor agonist]”, for which the “weight loss vs baseline” value in assay [1] (30 μg/kg q.d. s.c., eight weeks, AMLN diet mice (FIG. 2A study), vehicle gained 1.1 grams) came to 3.9 grams. Further, the “weight loss vs baseline (% of body weight)” value in assay [1] (30 μg/kg q.d. s.c., eight weeks, AMLN diet mice (FIG. 2A study), vehicle gained 3.0%) came out at 10.5%. In assay [1] (30 μg/kg q.d. s.c., eight weeks, vehicle increased by 0.1 points), the “change in mean fibrosis score vs baseline” value is reported as “remained unchanged”. Further, the “decrease in NAS vs baseline” value in assay [1] (30 μg/kg q.d. s.c., eight weeks, vehicle increased by 0.8 points, p<0.001 vs vehicle, p<0.05 vs liraglutide) is recorded as 1.6 points.
On to “H-dS-Q-G-T-F-T-S-D-L-S-K-Q-K(γE-Palm)-ESKAAQDFIEWLKAGGPSSGAPPPS-NH2 (HXQGTFTSDLSKQKESKAAQDFIEWLKAGGPSSGAPPPS; D-Ser1; K14 γE-palmitoyl; C-terminal amide; Exendin-4 analogue; MOD_RES (2)..(2) Xaa is D-Ser; MOD_RES (14)..(14) Lys is functionalized at the amino side chain group as Lys((S)-4-carboxy-4-hexadecanoylamino-butyryl); MOD_RES (39)..(39) amidated C-terminus) [SEQ ID NO.: 1, exendin-4 derivative of formula A, dual GLP-1/glucagon receptor agonist]”, for which the “binding to human GLP-1 receptor” value with human GLP-1 receptor is on record as “good binding”. Besides, the “decrease in mean NAS vs baseline” value in assay [1] (setting [2]) worked out at 2.0 points; in assay [1] (30 μg/kg b.i.d. s.c., eight weeks, vehicle increased by 0.2 points, p<0.05 vs liraglutide) it was 1.9 points. The “weight loss vs baseline” value is 3.0 grams in assay [1] (10 μg/kg twice daily s.c., eight weeks, AMLN diet mice (FIG. 3A study), vehicle gained 0.5 grams) and 3.9 grams in assay [1] (setting [3]). For the same substance, the “weight loss vs baseline (% of body weight)” value stood at 8.5% in assay [1] (10 μg/kg twice daily s.c., eight weeks, AMLN diet mice (FIG. 3A study), vehicle gained 1.3%) and 11.4% in assay [1] (setting [3]). For the same substance, in assay [1] (both doses, 10 and 30 μg/kg b.i.d. s.c., eight weeks (FIG. 3E)), the “change in fibrosis vs baseline” value is “trend to an improvement in fibrosis”. The “binding to human glucagon receptor” value with human glucagon receptor is “good binding”.
For “H-dS-Q-G-T-F-T-S-D-L-S-K-Q-K(γE-Palm)-DSRRAQDFIEWLKNGGPSSGAPPPS-NH2 (HXQGTFTSDLSKQKDSRRAQDFIEWLKNGGPSSGAPPPS; D-Ser1; K14 γE-palmitoyl; C-terminal amide; Exendin-4 analogue; MOD_RES (2)..(2) Xaa is D-Ser; MOD_RES (14)..(14) Lys is functionalized at the amino side chain group as Lys((S)-4-carboxy-4-hexadecanoylamino-butyryl); MOD_RES (39)..(39) amidated C-terminus) [SEQ ID NO.: 2, exendin-4 derivative of formula A, dual GLP-1/glucagon receptor agonist]”, the “mean fibrosis stage after treatment” value in assay [1] (10 μg/kg b.i.d. s.c., after eight weeks, baseline 1.2, vehicle group did not change) is recorded as 0.6. The “components of NAS (steatosis, inflammation and hepatocyte ballooning scores)” value in assay [1] (10 μg/kg b.i.d. s.c., eight weeks (FIG. 1D)) is on record as “reduction in score was seen for all three components of NAS”. Moreover, in assay [1] (setting [4]), the “weight loss vs vehicle” value is listed as 4.9 grams and the “weight loss vs vehicle, % of body weight at baseline” value is 13.5%. The “weight loss vs baseline” value in assay [1] (10 μg/kg b.i.d. s.c., eight weeks, AMLN diet mice (FIG. 1A study), vehicle gained 2.1 grams) is recorded as 2.8 gram. Further, in assay [1] (10 μg/kg b.i.d. s.c., eight weeks, AMLN diet mice (FIG. 1A study), vehicle gained 5.6%), the “weight loss vs baseline (% of body weight)” value is 7.7%. Also, the “reduction in NAFLD activity score (NAS) vs baseline” value in assay [1] (setting [2]) was 2.3 points.
